Reference: PubChem BioAssay (NCI)
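How tested: cells in 96-well plates exposed to compound for 48 hours at five concentrations. GI50 marks 50% less growth. TGI marks complete inhibition of growth.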

Columns and labels:
Assay in all cases: NCI tumour cell line growth inhibition, 48 h
[1] = system: NCI-H460 lung
[2] = system: HOP-92 NSCLC
[3] = system: LOX IMVI melanoma
[4] = system: A549 NSCLC
[5] = system: MCF7 breast
[6] = system: 786-0 renal
[7] = system: RXF 393 renal
[8] = system: NCI/ADR-RES ovarian
[9] = system: HCT-116 colon
[10] = system: HCC-2998 colon
[11] = system: OVCAR-8 ovarian
[12] = system: MDA-MB-231 breast
[13] = system: NCI-H23 lung
[14] = system: NCI-H226 lung
[15] = system: NCI-H522 lung
[16] = system: KM12 colon
[17] = system: IGROV1 ovarian
[18] = system: SF-295 CNS
[19] = system: SK-OV-3 ovarian
[20] = system: SW-620 colon
[21] = system: EKVX NSCLC
[22] = system: TK-10 renal
[23] = system: MOLT-4 leukemia
[24] = system: OVCAR-4 ovarian
[25] = system: UACC-257 melanoma
[26] = system: SN12C renal
[27] = system: CAKI-1 renal
[28] = system: RPMI-8226 leukemia
[29] = system: SF-268 CNS
[30] = system: MDA-MB-435
[31] = system: UO-31 renal
[32] = system: HL-60(TB) leukemia
[33] = system: ACHN renal
[34] = system: COLO 205 colon
[35] = system: OVCAR-3 ovarian
[36] = system: A498 renal
[37] = system: M14 melanoma
[38] = system: UACC-62 melanoma
[39] = system: HOP-62 NSCLC
[40] = system: HCT-15 colon
[41] = system: SK-MEL-5 melanoma
[42] = system: OVCAR-5 ovarian
[43] = system: U251 CNS
[44] = system: PC-3 prostate
[45] = system: HS 578T breast
[46] = system: SR leukemia
[47] = system: SK-MEL-28 melanoma
[48] = system: K-562 leukemia
[49] = system: DU-145 prostate
[50] = system: CCRF-CEM leukemia
[51] = system: SNB-19 CNS
[52] = system: SK-MEL-2 melanoma
[53] = system: SF-539 CNS
[54] = system: BT-549 breast
[55] = system: HT29 colon
[56] = system: T-47D breast
[57] = system: SNB-75 CNS

`Nc1ccc(-c2nc3ccccc3o2)cc1S` gave a GI50 [1] of 13.2 µM, a TGI [1] of 29.6 µM and a GI50 [2] of 18.8 µM. The TGI [2] was 42.3 µM, the GI50 [3] was 12.3 µM and the TGI [3] was 24.8 µM. The GI50 [4] was 14.3 µM, the TGI [4] was 41.5 µM and the GI50 [5] was 12.1 µM. For the same compound, the TGI [5] was 38.3 µM, the GI50 [6] was 14.5 µM and the TGI [6] was 27.6 µM. For the same compound, the GI50 [7] was 29.4 µM, the TGI [7] was 59.6 µM and the GI50 [8] was 24.9 µM. The TGI [8] was 65.2 µM, the GI50 [9] was 15.1 µM and the TGI [9] was 28.3 µM. It also gave a GI50 [10] of 14.4 µM, a TGI [10] of 32.2 µM and a GI50 [11] of 20.3 µM. For the same compound, the TGI [11] was 58 µM, the GI50 [12] was 6.14 µM and the TGI [12] was 23.6 µM. The GI50 [13] was 14.5 µM, the TGI [13] was 35.6 µM and the GI50 [14] was 11.8 µM. For the same compound, the TGI [14] was 30.4 µM, the GI50 [15] was 35.5 µM and the TGI [15] was greater than 100 µM. For the same compound, the GI50 [16] was 8.1 µM, the TGI [16] was 35.2 µM and the GI50 [17] was 19.7 µM. It also gave a TGI [17] greater than 100 µM, a GI50 [18] of 13.6 µM and a TGI [18] of 28.8 µM. The GI50 [19] was 23.2 µM, the TGI [19] was 65.1 µM and the GI50 [20] was 20.7 µM. It also gave a TGI [20] of 44.5 µM, a GI50 [21] of 11.6 µM and a TGI [21] of 55.3 µM. For the same compound, the GI50 [22] was 11.6 µM, the TGI [22] was 29 µM and the GI50 [23] was 7.77 µM. The TGI [23] was greater than 100 µM, the GI50 [24] was 7.58 µM and the TGI [24] was 26 µM. For the same compound, the GI50 [25] was 23.1 µM, the TGI [25] was 59.8 µM and the GI50 [26] was 13.2 µM. For the same compound, the TGI [26] was 27.5 µM, the GI50 [27] was 20.5 µM and the TGI [27] was 36.4 µM. It also gave a GI50 [28] of 12.4 µM, a TGI [28] of 32 µM and a GI50 [29] of 15 µM. It also gave a TGI [29] of 34.5 µM, a GI50 [30] of 17.8 µM and a TGI [30] of 36.9 µM. It also gave a GI50 [31] of 19.5 µM, a TGI [31] of 50.6 µM and a GI50 [32] of 14.5 µM. The TGI [32] was 42 µM, the GI50 [33] was 12.1 µM and the TGI [33] was 24.4 µM. It also gave a GI50 [34] of 27.5 µM, a TGI [34] greater than 100 µM and a GI50 [35] of 15.8 µM. It also gave a TGI [35] of 31 µM, a GI50 [36] of 28.3 µM and a TGI [36] of 70.6 µM. The GI50 [37] was 15.5 µM, the TGI [37] was 36.7 µM and the GI50 [38] was 13.2 µM. It also gave a TGI [38] of 26 µM, a GI50 [39] of 14.5 µM and a TGI [39] of 27.7 µM. For the same compound, the GI50 [40] was 16.5 µM, the TGI [40] was 30.3 µM and the GI50 [41] was 12.5 µM. For the same compound, the TGI [41] was 25.1 µM, the GI50 [42] was 19.2 µM and the TGI [42] was 45.3 µM. The GI50 [43] was 10.8 µM, the TGI [43] was 22.7 µM and the GI50 [44] was 6.96 µM. The TGI [44] was 22.5 µM, the GI50 [45] was 16.4 µM and the TGI [45] was 63.8 µM. The GI50 [46] was 10.5 µM, the TGI [46] was 64 µM and the GI50 [47] was 24.9 µM. For the same compound, the TGI [47] was 58.8 µM, the GI50 [48] was 19 µM and the TGI [48] was greater than 100 µM. For the same compound, the GI50 [49] was 19.9 µM, the TGI [49] was 55.3 µM and the GI50 [50] was 14 µM. The TGI [50] was 43.3 µM, the GI50 [51] was 22.9 µM and the TGI [51] was 81.3 µM. It also gave a GI50 [52] of 42.4 µM, a TGI [52] greater than 100 µM and a GI50 [53] of 17.6 µM. For the same compound, the TGI [53] was 31.4 µM, the GI50 [54] was 23.6 µM and the TGI [54] was 49.8 µM.
Compound `COc1ccc2c(c1)CCN1CCCc3ccc(OC)cc3C21` (stereo not drawn) has a TGI [2] greater than 100 µM, a TGI [3] greater than 100 µM and a TGI [4] greater than 100 µM. It also gave a TGI [5] greater than 100 µM, a TGI [6] greater than 100 µM and a TGI [7] greater than 100 µM. It also gave a TGI [8] greater than 100 µM, a TGI [9] greater than 100 µM and a TGI [10] greater than 100 µM. It also gave a TGI [11] greater than 100 µM, a TGI [12] greater than 100 µM and a TGI [13] greater than 100 µM. The TGI [14] was greater than 100 µM, the TGI [15] was greater than 100 µM and the TGI [16] was greater than 100 µM. For the same compound, the TGI [55] was greater than 100 µM, the TGI [17] was greater than 100 µM and the TGI [18] was greater than 100 µM. The TGI [19] was greater than 100 µM, the TGI [20] was greater than 100 µM and the TGI [21] was greater than 100 µM. The TGI [22] was greater than 100 µM, the TGI [23] was greater than 100 µM and the TGI [24] was greater than 100 µM. For the same compound, the TGI [25] was greater than 100 µM, the TGI [26] was greater than 100 µM and the TGI [27] was greater than 100 µM. It also gave a TGI [28] greater than 100 µM, a TGI [56] greater than 100 µM and a TGI [29] greater than 100 µM. The TGI [30] was greater than 100 µM, the TGI [31] was greater than 100 µM and the TGI [33] was greater than 100 µM. The TGI [34] was greater than 100 µM, the TGI [35] was greater than 100 µM and the TGI [36] was greater than 100 µM. It also gave a TGI [37] greater than 100 µM, a TGI [38] greater than 100 µM and a TGI [39] greater than 100 µM. For the same compound, the TGI [40] was greater than 100 µM, the TGI [41] was greater than 100 µM and the TGI [42] was greater than 100 µM. It also gave a TGI [43] greater than 100 µM, a TGI [44] greater than 100 µM and a TGI [45] greater than 100 µM. For the same compound, the TGI [46] was greater than 100 µM, the TGI [47] was greater than 100 µM and the TGI [48] was greater than 100 µM. For the same compound, the TGI [49] was greater than 100 µM, the TGI [50] was greater than 100 µM and the TGI [51] was greater than 100 µM. For the same compound, the TGI [57] was 83.2 µM, the TGI [52] was greater than 100 µM and the TGI [53] was greater than 100 µM. The TGI [54] was 89.3 µM.
